Three compounds from EP1082319B1, “BENZOCARBAZOLE AND INDENOINDOLE DERIVED ESTROGENIC AGENTS” (Wyeth, priority 1998, dated 1999) can be followed below.

Assay [1] has as its target T1, human estrogen receptor (Homo sapiens, UniProt P03372).
T1 construct: expressed in transfected cells
Nature of the assay: 2X VIT ERE infection luciferase assay in CHO cells stably transfected with the human estrogen receptor. The format is cell-based. The note with it: for Infection Luciferase Activity, 1 uM + 17β estradiol: 1 uM compound + 1 nM 17β-estradiol, 24 h (tests for estrogen antagonism), percentage of activity as compared to 17β-estradiol; for Infection Luciferase Activity, 1 uM: 1 uM compound alone, 24 h, percentage of activity as compared to 17β-estradiol (agonism). Here is the method: Chinese Hamster Ovary cells (CHO) which had been stably transfected with the human estrogen receptor were maintained in DMEM + 10% fetal bovine serum (FBS). 48h prior to treatment the growth medium was replaced with DMEM lacking phenol red + 10% dextran coated charcoal stripped FBS (treatment medium). Cells were plated at a density of 5000 cells/well in 96-well plates containing 200 µL of medium/well.
Reporter DNA (Promega plasmid pGL2 containing two tandem copies of the vitellogenin ERE in front of the minimal thymidine kinase promoter driving the luciferase gene) was combined with the B-galactosidase expression plasmid pCH110 (Pharmacia) and carrier DNA (pTZ18U) in the following ratio: • 10uG of reporter DNA • 5uG of pCH110DNA • 5 uG of pTZ18U • 20 uG of DNA/1 mL of transfection solution
The DNA (20uG) was dissolved in 500 uL of 250 mM sterile CaCl2 and added dropwise to 500 uL of 2 X HeBS (0.28 M NaCl, 50 mM HEPES, 1.5 mM Na2HPO4, pH 7.05) and incubated at room temperature for 20 minutes. 20 uL of this mixture was added to each well of cells and remained on the cells for 16 h. […] Each treatment condition was performed on 8 wells (n=8) which were incubated for 24 h prior to the luciferase assay.
After 24h exposure to compounds, the media was removed and each well washed 2X with 125 uL of PBS lacking Mg^++ and Ca^++. After removing the PBS, 25 uL of Promega lysis buffer was added to each well and allowed to stand at room temperature for 15 min, followed by 15 min at -80°C and 15 min at 37°C. 20 uL of lysate was transferred to an opaque 96 well plate for luciferase activity evaluation and the remaining lysate (5 uL) was used for the B-galactosidase activity evaluation (normalize transfection). The luciferan substrate (Promega) was added in 100 uL aliquots to each well automatically by the luminometer and the light produced (relative light units) was read 10 seconds after addition.
To the remaining 5 uL of lysate 45 uL of PBS was added. Then 50 uL of Promega B-galactosidase 2X assay buffer was added, mixed well and incubated at 37°C for 1 hour. A plate containing a standard curve (0.1 to 1.5 milliunits in triplicate) was set up for each experimental run. The plates were analyzed on a Molecular Devices spectrophotometric plate reader at 410 nm. The optical densities for the unknown were converted to milliunits of activity by mathematical extrapolation from the standard curve.
The luciferase data was generated as relative light units (RLUs) accumulated during a 10 second measurement and automatically transferred to a JMP (SAS Inc) file where background RLUs were subtracted. The B-galactosidase values were automatically imported into the file and these values were divided into the RLUs to normalize the data. The mean and standard deviations were determined from a n=8 for each treatment.

Assay [2] addresses T2, estrogen receptor (Homo sapiens, UniProt P03372).
T2 construct: expressed in transfected cells; host or cells: CHO cells (ribosome-free cytosol)
T2 sequence (P03372 1-595): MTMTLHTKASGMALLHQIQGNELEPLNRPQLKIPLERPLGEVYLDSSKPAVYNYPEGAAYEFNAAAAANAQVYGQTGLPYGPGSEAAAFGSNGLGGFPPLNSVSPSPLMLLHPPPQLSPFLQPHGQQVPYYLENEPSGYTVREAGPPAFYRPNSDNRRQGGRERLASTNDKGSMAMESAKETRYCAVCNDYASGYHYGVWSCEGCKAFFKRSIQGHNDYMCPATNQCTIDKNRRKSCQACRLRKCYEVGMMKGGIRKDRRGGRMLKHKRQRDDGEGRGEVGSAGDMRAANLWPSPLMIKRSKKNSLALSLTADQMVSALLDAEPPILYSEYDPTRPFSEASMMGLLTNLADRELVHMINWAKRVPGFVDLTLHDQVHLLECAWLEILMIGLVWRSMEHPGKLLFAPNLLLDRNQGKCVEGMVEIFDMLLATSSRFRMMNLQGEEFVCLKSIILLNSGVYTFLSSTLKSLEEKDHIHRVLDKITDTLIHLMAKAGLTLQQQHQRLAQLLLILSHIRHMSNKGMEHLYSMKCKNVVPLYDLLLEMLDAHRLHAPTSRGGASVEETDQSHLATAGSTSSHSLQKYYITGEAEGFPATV
Briefly: In vitro estrogen receptor binding assay (competition with [3H]-17β-estradiol, cytosol of CHO cells overexpressing the receptor). The note with it: for binding to the ER receptor, comparison in words: compared with the indenoindole Example 4, from Table 2; for IC50: read-out: Receptor Binding IC50's. On the procedure: The plates were washed twice with PBS and once with 10 mM Tris-HCl, pH 7.4, 1 mM EDTA. Cells were harvested by scraping the surface and then the cell suspension was placed on ice. Cells were disrupted with a hand-held motorized tissue grinder using two, 10-second bursts. The crude preparation was centrifuged at 12,000g for 20 minutes followed by a 60 minute spin at 100,000g to produce a ribosome free cytosol. The cytosol was then frozen and stored at -80°C. Protein concentration of the cytosol was estimated using the BCA assay with reference standard protein. […] The plate was incubated at room temperature for 2.5 h. At the end of this incubation period 150 uL of ice-cold dextran coated charcoal (5% activated charcoal coated with 0.05% […] dextran) was added to each well and the plate was immediately centrifuged at 99g for 5 minutes at 4°C. 200 uL of the supernatant solution was then removed for scintillation counting. […] Also, wells containing radioactivity but no cytosol were processed with charcoal to estimate unremovable DPM of [^3H] 17β-estradiol. Counts per minute (CPM) of radioactivity were automatically converted to disintegrated per minute (DPM) by the Beckman LS 7500 Scintillation Counter using a set of quenched standards to generate a H# for each sample. […]

By IC50 is commonly meant the concentration needed to halve the response being measured.

With `COc1ccc2c(c1)CCc1c-2n(Cc2ccc(OCCN3CCCCCC3)cc2)c2ccc(O)cc12` [Example 14], in assay [1], the “Infection Luciferase Activity, 1 uM + 17β estradiol” value is reported as 8% and the “Infection Luciferase Activity, 1 uM” value is on record as 1%. Further, in assay [2], the “binding to the ER receptor, comparison in words” value is “bind better to the ER receptor than the indenoindole Example 4” and the concentration for half-maximal inhibition (IC50) worked out at 190 nM.
Regarding `COc1ccc2c(c1)CCc1c-2n(Cc2ccc(OCCN3CCCCC3)cc2)c2ccc(O)cc12` [Example 13, 3-Methoxy-11-[4-(2-piperidin-1-yl-ethoxy)-benzyl]-5,11-dihydro-6H-benzo[a]carbazol-8-ol], in assay [1], the “Infection Luciferase Activity, 1 uM + 17β estradiol” value is 1% and the “Infection Luciferase Activity, 1 uM” value was -7%. In addition, in assay [2], the “binding to the ER receptor, comparison in words” value is reported as “bind better to the ER receptor than the indenoindole Example 4” and the IC50 amounted to 110 nM.
Regarding `COc1ccc2c(c1)Cc1c-2n(Cc2ccc(OCCN3CCCCC3)cc2)c2ccc(O)cc12` [Example 4, 2-Methoxy-5-[4-(2-piperidin-1-yl-ethoxy)-benzyl]-5,10-dihydro-indeno[1,2-b]indol-8ol], in assay [1], the “Infection Luciferase Activity, 1 uM + 17β estradiol” value stood at 83% and the “Infection Luciferase Activity, 1 uM” value is listed as -2%. Besides, the IC50 in assay [2] was determined as 430 nM.
